Laboratory results from PubChem BioAssay (NCI).
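Abbreviation: GI50, concentration required for 50% inhibition of growth. TGI: concentration producing complete growth inhibition.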

Legend:
Test in all cases: growth of human tumour cells (NCI), 384-well format
[1] = tested on: UACC-62 melanoma
[2] = tested on: BT-549 breast
[3] = tested on: NCI-H23 lung
[4] = tested on: SF-539 CNS
[5] = tested on: RPMI-8226 leukemia
[6] = tested on: DU-145 prostate
[7] = tested on: NCI-H460 NSCLC
[8] = tested on: COLO 205 colon
[9] = tested on: IGROV1 ovarian
[10] = tested on: A549 NSCLC
[11] = tested on: PC-3 prostate
[12] = tested on: MALME-3M melanoma
[13] = tested on: SW-620 colon

| Compound | GI50 [1] | TGI [1] | GI50 [2] | TGI [2] | GI50 [3] | TGI [3] | GI50 [4] | TGI [4] | GI50 [5] | TGI [5] | GI50 [6] | TGI [6] | GI50 [7] | TGI [7] | GI50 [8] | TGI [8] | GI50 [9] | TGI [9] | GI50 [10] | TGI [10] | further results |
| --- | --- | --- | --- | --- | --- | --- | --- | --- | --- | --- | --- | --- | --- | --- | --- | --- | --- | --- | --- | --- | --- |
| CN1C(=O)[C@@H](CC2CCCC2)N(C2CCCC2)c2nc(Nc3cc(Cl)c(O)c(Cl)c3)ncc21 | 8.84 µM | 23.2 µM | 4.02 µM | 17.5 µM | 4.5 µM | 35 µM | 8.81 µM | 27.2 µM | 1.8 µM | 4.17 µM | 6.56 µM | 64.7 µM | 6.22 µM | 19.4 µM | 27.8 µM | 81.8 µM | 9.94 µM | 39.6 µM | 4.89 µM | 70.7 µM | GI50 [11]: 3.42 µM; TGI [11]: 20.2 µM; GI50 [12]: 4.41 µM; TGI [12]: 29.9 µM; GI50 [13]: 7.08 µM; TGI [13]: 40.7 µM |
| Cc1c(Br)c(Br)c2c3c1nc(N1CCNCC1)n3CCC2 | 1.48 µM | 2.82 µM | 1.35 µM | 2.64 µM | 1.66 µM | 3.09 µM | 1.64 µM | 3.01 µM | 0.81 µM | 2.27 µM | 1.67 µM | 3.12 µM | 1.39 µM | 2.73 µM | 1.8 µM | 3.21 µM | 1.31 µM | 2.61 µM | 1.75 µM | 3.35 µM | GI50 [11]: 1.32 µM; TGI [11]: 2.67 µM; GI50 [12]: 1.42 µM; TGI [12]: 2.73 µM; GI50 [13]: 1.25 µM; TGI [13]: 2.51 µM |
